Test results taken from patent US20010044404A1, “Cleaning process and composition” (3M Innovative Properties Company, priority 1995, published 2001).

Experiments:
[1] = Pump oil removal with n-C6H14/perfluorocompound mixture at room temperature, ultrasonic; conditions: 40 volume % n-C6H14, 60 volume % fluorinated component, 60 seconds
Procedure: The above-described test coupon was dipped into DuoSeal Pump Oil (available from Sargent-Welch) and was then immersed in a mixture of 40 volume % n-C6H14 and 60 volume % alkoxy-substituted perfluorocompound (a cleaning composition of the invention) for 60 seconds at room temperature with ultrasonic agitation. The percent oil removal was determined in the above-described manner.

[2] = Rinse agent in co-solvent cleaning of solder flux; conditions: solvating agent 1 minute at about 55° C., then 30 seconds in boiling solvent
Procedure: The ability of alkoxy-substituted perfluorocompounds to function as a rinse agent in a co-solvent cleaning process was evaluated. The above-described aluminum coupon was coated with solder flux (available from Alpha Metals as Alpha 611 rosin, mildly activated flux) by immersing the coupon into a flux-filled beaker. The flux-coated coupon was then dried using a forced air convection drier. The initial amount of the flux on the coupon was determined by weighing it on an analytical balance to the nearest 0.1 mg. The coupon was immersed in a container of a mixed solvating agent comprising approximately 50% methyl decanoate and 50% dipropylene glycol di-n-butyl ether and was sonicated for 1 minute at approximately 55° C. The coupon was then immersed for 30 seconds into alkoxy-substituted perfluorocompound which had been heated to its boiling point. The coupon was weighed again, and the results were recorded in Table 5 below as percent oil removed from the coupon.

[3] = Perfluoropolyether oil removal in solvent vapor; conditions: Brayco 815Z; vapor over boiling liquid, 60 seconds
Procedure: The above-described aluminum coupon was dipped into Brayco 815Z perfluoropolyether oil (available from Castrol Inc., molecular weight of about 10,000) and then immersed in alkoxy-substituted perfluorocompound vapor (over the boiling liquid) for 60 seconds. The percent oil removal was determined in the above-described manner.

[4] = Hydrolytic stability under more severely basic conditions (aqueous KOH reflux); format: physicochemical; conditions: refluxed at 58° C. for 19 hours
Procedure: To assess hydrolytic stability under more severely basic conditions, C4F9OCH3 (125 g of 99.8% purity, 0.5 mole) was combined with potassium hydroxide ([…], dissolved in 26.1 g water) in a 250 mL flask equipped with an overhead stirrer, a condenser, and a thermometer, and the resulting solution was refluxed at 58° C. for 19 hours. Water (50 mL) was added to the solution after refluxing, and the resulting product was distilled. The lower fluorochemical phase of the resulting distillate was separated from the upper phase and was washed with water (100 mL) to yield 121.3 g of recovered C4F9OCH3, which was identical in purity and composition to the starting material (as shown by gas chromatography).

[5] = Stability in the presence of base: aqueous NaOAc, fluoride ion measurement; format: physicochemical; conditions: 10 g with 10 g 0.1M NaOAc, 110° C., 16 hours
Procedure: To assess hydrolytic stability, a ten gram sample of alkoxy-substituted perfluorocompound was combined with 10 g of 0.1M NaOAc and sealed in a 2.54 cm (internal diameter) by 9.84 cm Monel™ 400 alloy (66% nickel, 31.5% copper, and 1.2% iron and several minor components) tube (available from Paar Instrument Co. of Moline, Ill. as Part Number 4713cm). The tube was heated at 110° C. in a forced air convection oven for 16 hours. After cooling to room temperature, a 1 mL sample of the tube contents was diluted with 1 mL of total ionic strength adjustment buffer (TISAB, available from Orion Research, Inc., a mixture of 1,2-cyclohexylene dinitrilotetraacetic acid, deionized water, sodium acetate, sodium chloride, and acetic acid). The concentration of fluoride ion (resulting from any reaction of the perfluorocompound with the aqueous NaOAc) was measured using an Orion Model 720A Coulombmeter with a F-specific electrode which had been previously calibrated using 0.5 and 500 ppm F^− solutions. Based on the measured fluoride ion concentration, the rate at which HF had been generated by reaction of the aqueous NaOAc with the perfluorocompound was calculated.

[6] = Stability in the presence of oxidant (potassium permanganate in acetone); format: physicochemical; conditions: refluxed four hours
Procedure: To assess oxidative stability, potassium permanganate (20 g, 0.126 mole) was dissolved in acetone, and C4F9OCH3 (500 g of 99.9% purity, 2.0 mole) was added to the resulting solution. The solution was refluxed for four hours, with no indication that the permanganate had been consumed (as evidenced by the absence of brown MnO2). The refluxed solution was then distilled into a 500 mL Barrett trap filled with water. The lower fluorochemical phase of the resulting mixture was separated from the upper phase, was washed with four 1.5 L aliquots of water, and was dried by passage through a column of silica gel to yield 471 g of resulting product.

[7] = Pump oil removal with boiling mixed terpenes/perfluorocompound mixture; conditions: boiling mixture 40 volume % mixed terpenes, 60 volume % fluorinated component
Procedure: The above-described test coupon was dipped into DuoSeal Pump Oil (available from Sargent-Welch), was immersed in a boiling mixture of 40 volume % of a solvating agent comprising mixed terpenes having a boiling range of 243-274° C. and 60 volume % of alkoxy-substituted perfluorocompound (a cleaning composition of the invention), was cooled for 60 seconds, and was then immersed in mixture vapor for 30 seconds. The percent oil removal was determined in the above-described manner.

[8] = Fluorinated oil removal from aluminum coupon; conditions: Krytox 157FSM, room temperature
Procedure: Using essentially the same procedure as that described in Examples 8-10, the ability of the alkoxy-substituted perfluorocompounds to remove a fluorinated oil was evaluated. As in the previous Examples, a coupon was immersed in Krytox™ 157FSM perfluoropolyether oil having carboxylic acid end groups (available from DuPont), and the percent oil remaining after immersion in the solvent (at room temperature) was determined.

[9] = Ability to dissolve halogenated oils (miscibility); format: physicochemical; conditions: room temperature
Procedure: The ability of alkoxy-substituted perfluorocompounds to dissolve several halogenated oils was determined by adding a measured amount of oil to alkoxy-substituted perfluorocompound until the resulting mixture became turbid or phase-split. […] The results (shown in Table 12) indicate that alkoxy-substituted perfluorocompounds have very high ability to dissolve halogenated oils. Thus, the perfluorocompounds can be used as carrier solvents for halogenated oils in the deposition of coatings of such oils on substrate surfaces.

[10] = Stability in the presence of acid (96% sulfuric acid, GLC); format: physicochemical
Procedure: To assess hydrolytic stability under acidic conditions, C4F9OCH3 (15 g, 0.06 mole) was combined with sulfuric acid (10 g of 96% by weight, 0.097 mole) in a 50 mL flask containing a stir bar and fitted with a reflux condenser. The resulting mixture was stirred for 16 hours at room temperature, and then the resulting upper fluorochemical phase was separated from the resulting lower sulfuric acid phase. […] Chem. 49, 4007 (1984), which states that “[f]luorine atoms attached to carbon which also bears an alkyl ether group are known to be labile to electrophilic reagents. They are readily hydrolyzed in concentrated sulfuric acid, thus providing a route to some esters of fluoroacids.”

COC(F)(F)C(F)(F)C(F)(F)C(F)(F)F [Example C4F9OCH3, perfluorobutyl methyl ether]
Percent Soil Removed [1]: 92.5% | % Removed [2]: 100.0% | Percent Soil Removed [3]: 89.9% | Stability in the presence of base [4]: stable in the presence of the base | HF Generation Rate [5]: 0.67 µg/g/h | Stability in the presence of oxidant [6]: stable in the presence of the oxidant | Percent Soil Removed [7]: 86.4% | % Removed [8]: 99.1% | Miscibility with solute ([9]; Brayco 815Z Perfluoropolyether (MW about 10,000)): Miscible (greater than or equal to 50 percent by volume solubility at room temperature) | Miscibility with solute ([9]; Chlorotrifluoroethylene Fluid (Inland 41 Vacuum Pump Oil)): Miscible (greater than or equal to 50 percent by volume solubility at room temperature) | Miscibility with solute ([9]; Fomblin AM-2001 Functionalized Perfluoropolyether): Miscible (greater than or equal to 50 percent by volume solubility at room temperature) | Stability in the presence of acid ([10]; 96% sulfuric acid, 16 hours at room temperature): stable in the presence of the acid | Stability in Presence of Acid: conversion to ester ([10]; neat ether, sulfuric acid as in Stability in the Presence of Acid section): no rxn. (0%
